Measurements taken from patent publication US20240368150A1 (Hoffmann-La Roche Inc., priority 2021, published 2024).
Where two headings read alike, the source gives them in different places.

Columns and labels:
[1] = system: primary human T-cells; experiment: Proliferation assay after 5 days (CellTiter-Glo, CD3 stimulation; PBS counter screen); format: cell-based; conditions: Homo sapiens, T-cell, 120 h, CD3 stimulation; for Emax: 5 days, normalized to reference compound A1 as stimulator control = 100%, DMSO neutral control, read-out: Emax proliferation (% activation); for EC50: primary human T-cells, CellTiter-Glo after 5 days, EC50 of fitted sigmoidal curve, read-out: Tcell Proliferation CD3 EC50
Summary of the method: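 Primary human T-cells, with or without CD3 stimulation, exposed to compounds for 5 days; cell number read as ATP by CellTiter-Glo 2.0 luminescence after 45 min equilibration and 15 min reagent incubation at room temperature. Compounds activating unstimulated cells or reducing viability were flagged.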

[2] = system: primary human T-cells

CC(N)(c1nnc(-c2cc3c(cc2F)S(=O)(=O)C[C@H](N)C(=O)N3Cc2ccc(Cl)cc2)o1)C(F)(F)F (stereo partly drawn) [Example 127, (3R)-3-amino-7-[5-(1-amino-2,2,2-trifluoro-1-methyl-ethyl)-1,3,4-oxadiazol-2-yl]-5-[(4-chlorophenyl)methyl]-8-fluoro-1,1-dioxo-2,3-dihydro-1λ^6,5-benzothiazepin-4-one]
Emax [1]: 110% | EC50 [1]: 181 nM | EC50 [2]: 232 nM

CC(C)(c1nnc(-c2cc3c(cc2F)S(=O)(=O)C[C@H](N)C(=O)N3Cc2ccc(Cl)cc2)o1)N1CCCC1 [Example 128, (3R)-3-amino-5-[(4-chlorophenyl)methyl]-8-fluoro-7-[5-(1-methyl-1-pyrrolidin-1-yl-ethyl)-1,3,4-oxadiazol-2-yl]-1,1-dioxo-2,3-dihydro-1λ^6,5-benzothiazepin-4-one]
Emax [1]: 99% | EC50 [1]: 534 nM | EC50 [2]: 1240 nM

Cc1ccc(-c2nnc(-c3cc4c(cc3F)S(=O)(=O)C[C@H](N)C(=O)N4Cc3ccc(Cl)cc3)o2)nc1 [Example 129, (3R)-3-amino-5-[(4-chlorophenyl)methyl]-8-fluoro-7-[5-(5-methyl-2-pyridyl)-1,3,4-oxadiazol-2-yl]-1,1-dioxo-2,3-dihydro-1λ^6,5-benzothiazepin-4-one]
Emax [1]: 106% | EC50 [1]: 1420 nM | EC50 [2]: 1900 nM

Cc1cc(C)c(-c2nnc(-c3cc4c(cc3F)S(=O)(=O)C[C@H](N)C(=O)N4Cc3ccc(Cl)cc3)o2)cn1 [Example 130, (3R)-3-amino-5-[(4-chlorophenyl)methyl]-7-[5-(4,6-dimethyl-3-pyridyl)-1,3,4-oxadiazol-2-yl]-8-fluoro-1,1-dioxo-2,3-dihydro-1λ^6,5-benzothiazepin-4-one]
Emax [1]: 114% | EC50 [1]: 159 nM | EC50 [2]: 284 nM

Cc1nc(F)ccc1-c1nnc(-c2cc3c(cc2F)S(=O)(=O)C[C@H](N)C(=O)N3Cc2ccc(Cl)cc2)o1 [Example 131, (3R)-3-amino-5-[(4-chlorophenyl)methyl]-8-fluoro-7-[5-(6-fluoro-2-methyl-3-pyridyl)-1,3,4-oxadiazol-2-yl]-1,1-dioxo-2,3-dihydro-1λ^6,5-benzothiazepin-4-one]
Emax [1]: 192% | EC50 [1]: 347 nM | EC50 [2]: 376 nM

COC(=O)N1CCC(OC)(c2nnc(-c3cc4c(cc3F)S(=O)(=O)C[C@H](N)C(=O)N4Cc3ccc(Cl)cc3)o2)CC1 [Example 132, methyl 4-methoxy-4-[5-[(3R)-3-amino-5-[(4-chlorophenyl)methyl]-8-fluoro-1,1,4-trioxo-2,3-dihydro-1λ^6,5-benzothiazepin-7-yl]-1,3,4-oxadiazol-2-yl]-piperidine-1-carboxylate]
Emax [1]: 97% | EC50 [1]: 150 nM | EC50 [2]: 1950 nM

Cc1ccc(-c2nnc(-c3cc4c(cc3F)S(=O)(=O)C[C@H](N)C(=O)N4Cc3ccc(Cl)cc3)o2)cn1 [Example 133, (3R)-3-amino-5-[(4-chlorophenyl)methyl]-8-fluoro-7-[5-(6-methyl-3-pyridyl)-1,3,4-oxadiazol-2-yl]-1,1-dioxo-2,3-dihydro-1λ^6,5-benzothiazepin-4-one]
Emax [1]: 144% | EC50 [1]: 324 nM | EC50 [2]: 1190 nM

N[C@H]1CS(=O)(=O)c2cc(F)c(-c3nnc(-c4ccc(F)nc4)o3)cc2N(Cc2ccc(Cl)cc2)C1=O [Example 134, (3R)-3-amino-5-[(4-chlorophenyl)methyl]-8-fluoro-7-[5-(6-fluoro-3-pyridyl)-1,3,4-oxadiazol-2-yl]-1,1-dioxo-2,3-dihydro-1λ^6,5-benzothiazepin-4-one]
Emax [1]: 34% | EC50 [1]: > 10000 nM | EC50 [2]: 1360 nM

N[C@H]1CS(=O)(=O)c2cc(F)c(-c3nnc(-c4ccc(F)cn4)o3)cc2N(Cc2ccc(Cl)cc2)C1=O [Example 135, (3R)-3-amino-5-[(4-chlorophenyl)methyl]-8-fluoro-7-[5-(5-fluoro-2-pyridyl)-1,3,4-oxadiazol-2-yl]-1,1-dioxo-2,3-dihydro-1λ^6,5-benzothiazepin-4-one]
Emax [1]: 93% | EC50 [1]: 1050 nM | EC50 [2]: 2900 nM

CC(C)(c1nnc(-c2cc3c(cc2F)S(=O)(=O)C[C@H](N)C(=O)N3Cc2ccc(Cl)cc2)o1)C(N)C(F)(F)F (stereo partly drawn) [Example 136, (3R)-3-amino-7-[5-(2-amino-3,3,3-trifluoro-1,1-dimethyl-propyl)-1,3,4-oxadiazol-2-yl]-5-[(4-chlorophenyl)methyl]-8-fluoro-1,1-dioxo-2,3-dihydro-1λ^6,5-benzothiazepin-4-one]
Emax [1]: 99% | EC50 [1]: 114 nM | EC50 [2]: 187 nM

COC(=O)NC(C(F)(F)F)C(C)(C)c1nnc(-c2cc3c(cc2F)S(=O)(=O)C[C@H](N)C(=O)N3Cc2ccc(Cl)cc2)o1 (stereo partly drawn) [Example 137, methyl N-[2-methyl-2-[5-[(3R)-3-amino-5-[(4-chlorophenyl)methyl]-8-fluoro-1,1,4-trioxo-2,3-dihydro-1λ^6,5-benzothiazepin-7-yl]-1,3,4-oxadiazol-2-yl]-1-(trifluoromethyl)propyl]carbamate]
Emax [1]: 90% | EC50 [1]: 309 nM | EC50 [2]: 487 nM

CC(C)(CN1CCS(=O)(=O)CC1)c1nnc(-c2cc3c(cc2F)S(=O)(=O)C[C@H](N)C(=O)N3Cc2ccc(Cl)cc2)o1 [Example 138, (3R)-3-amino-5-[(4-chlorophenyl)methyl]-7-[5-[2-(1,1-dioxo-1,4-thiazinan-4-yl)-1,1-dimethyl-ethyl]-1,3,4-oxadiazol-2-yl]-8-fluoro-1,1-dioxo-2,3-dihydro-1λ^6,5-benzothiazepin-4-one]
Emax [1]: 120% | EC50 [1]: 1510 nM | EC50 [2]: 3470 nM

CN(CCO)CC(C)(C)c1nnc(-c2cc3c(cc2F)S(=O)(=O)C[C@H](N)C(=O)N3Cc2ccc(Cl)cc2)o1 [Example 139, (3R)-3-amino-5-[(4-chlorophenyl)methyl]-8-fluoro-7-[5-[2-[2-hydroxyethyl(methyl)amino]-1,1-dimethyl-ethyl]-1,3,4-oxadiazol-2-yl]-1,1-dioxo-2,3-dihydro-1λ^6,5-benzothiazepin-4-one]
Emax [1]: 102% | EC50 [1]: 3400 nM | EC50 [2]: 4000 nM

CN(C)CCC(C)(C)c1nnc(-c2cc3c(cc2F)S(=O)(=O)C[C@H](N)C(=O)N3Cc2ccc(Cl)cc2)o1 [Example 140, (3R)-3-amino-5-[(4-chlorophenyl)methyl]-7-[5-[3-(dimethylamino)-1,1-dimethyl-propyl]-1,3,4-oxadiazol-2-yl]-8-fluoro-1,1-dioxo-2,3-dihydro-1λ^6,5-benzothiazepin-4-one]
Emax [1]: 70% | EC50 [1]: 5350 nM | EC50 [2]: 3880 nM

CC(C)(CN1CCCCC1)c1nnc(-c2cc3c(cc2F)S(=O)(=O)C[C@H](N)C(=O)N3Cc2ccc(Cl)cc2)o1 [Example 141, (3R)-3-amino-5-[(4-chlorophenyl)methyl]-7-[5-[1,1-dimethyl-2-(1-piperidyl)ethyl]-1,3,4-oxadiazol-2-yl]-8-fluoro-1,1-dioxo-2,3-dihydro-1λ^6,5-benzothiazepin-4-one]
Emax [1]: 91% | EC50 [1]: 768 nM | EC50 [2]: 255 nM

CC(C)(CN1CCC(F)(F)CC1)c1nnc(-c2cc3c(cc2F)S(=O)(=O)C[C@H](N)C(=O)N3Cc2ccc(Cl)cc2)o1 [Example 142, (3R)-3-amino-5-[(4-chlorophenyl)methyl]-7-[5-[2-(4,4-difluoro-1-piperidyl)-1,1-dimethyl-ethyl]-1,3,4-oxadiazol-2-yl]-8-fluoro-1,1-dioxo-2,3-dihydro-1λ^6,5-benzothiazepin-4-one]
Emax [1]: 66% | EC50 [1]: 138 nM | EC50 [2]: 224 nM

CN(C)CCCC(C)(C)c1nnc(-c2cc3c(cc2F)S(=O)(=O)C[C@H](N)C(=O)N3Cc2ccc(Cl)cc2)o1 [Example 143, (3R)-3-amino-5-[(4-chlorophenyl)methyl]-7-[5-[4-(dimethylamino)-1,1-dimethyl-butyl]-1,3,4-oxadiazol-2-yl]-8-fluoro-1,1-dioxo-2,3-dihydro-1λ^6,5-benzothiazepin-4-one]
Emax [1]: 77% | EC50 [1]: 2390 nM | EC50 [2]: 1270 nM

CN1CCC(c2nnc(-c3cc4c(cc3F)S(=O)(=O)C[C@H](N)C(=O)N4Cc3ccc(Cl)cc3)o2)C1 (stereo partly drawn) [Example 144, (3R)-3-amino-5-[(4-chlorophenyl)methyl]-8-fluoro-7-[5-(1-methylpyrrolidin-3-yl)-1,3,4-oxadiazol-2-yl]-1,1-dioxo-2,3-dihydro-1λ^6,5-benzothiazepin-4-one]
Emax [1]: 106% | EC50 [1]: 6150 nM | EC50 [2]: 1820 nM

CN1CCCC(C)(c2nnc(-c3cc4c(cc3F)S(=O)(=O)C[C@H](N)C(=O)N4Cc3ccc(Cl)cc3)o2)C1 (stereo partly drawn) [Example 145, (3R)-3-amino-5-[(4-chlorophenyl)methyl]-7-[5-(1,3-dimethyl-3-piperidyl)-1,3,4-oxadiazol-2-yl]-8-fluoro-1,1-dioxo-2,3-dihydro-1λ^6,5-benzothiazepin-4-one]
Emax [1]: 107% | EC50 [1]: 428 nM | EC50 [2]: 404 nM

CN(C)CC(C)(C)c1nnc(-c2cc3c(cc2F)S(=O)(=O)C[C@H](N)C(=O)N3Cc2ccc(Cl)cc2)o1 [Example 146, (3R)-3-amino-5-[(4-chlorophenyl)methyl]-7-[5-[2-(dimethylamino)-1,1-dimethyl-ethyl]-1,3,4-oxadiazol-2-yl]-8-fluoro-1,1-dioxo-2,3-dihydro-1λ^6,5-benzothiazepin-4-one]
Emax [1]: 90% | EC50 [1]: 189 nM | EC50 [2]: 260 nM

CC(C)(CN1CCOCC1)c1nnc(-c2cc3c(cc2F)S(=O)(=O)C[C@H](N)C(=O)N3Cc2ccc(Cl)cc2)o1 [Example 147, (3R)-3-amino-5-[(4-chlorophenyl)methyl]-7-[5-(1,1-dimethyl-2-morpholino-ethyl)-1,3,4-oxadiazol-2-yl]-8-fluoro-1,1-dioxo-2,3-dihydro-1λ^6,5-benzothiazepin-4-one]
Emax [1]: 117% | EC50 [1]: 343 nM | EC50 [2]: 348 nM
